We go through 20 compounds from US12240862B2, “Inhibitors of peptidylarginine deiminases” (Gilead Sciences, Inc., priority 2020, dated 2025).

The target in this test is T1, human PAD4 (Homo sapiens, UniProt Q9UM07).
T1 construct: human PAD4 (NM_012387), A2P663, was PCR amplified; His-SUMO (N, cleaved yes); made in house; host or cells: E. coli BL21(DE3)
As to the kind of experiment: In vitro PAD4 BAEE biochemical assay. The following applies: human PAD4, BAEE substrate; 5 nM PAD4, 2 mM calcium chloride, 3 mM BAEE; geometric mean of multiple experiments. In a few lines: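 Tag-free recombinant hPAD4 (5 nM), 2 mM CaCl2, 3 mM BAEE, 50 mM MOPS pH 7.6, 2 mM DTT; 30 min compound preincubation, 2 h reaction, all 25 °C. EDTA quench; ammonia read via o-phthalaldehyde amine coupling, 1 h.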

T1 sequence (Q9UM07 2-663): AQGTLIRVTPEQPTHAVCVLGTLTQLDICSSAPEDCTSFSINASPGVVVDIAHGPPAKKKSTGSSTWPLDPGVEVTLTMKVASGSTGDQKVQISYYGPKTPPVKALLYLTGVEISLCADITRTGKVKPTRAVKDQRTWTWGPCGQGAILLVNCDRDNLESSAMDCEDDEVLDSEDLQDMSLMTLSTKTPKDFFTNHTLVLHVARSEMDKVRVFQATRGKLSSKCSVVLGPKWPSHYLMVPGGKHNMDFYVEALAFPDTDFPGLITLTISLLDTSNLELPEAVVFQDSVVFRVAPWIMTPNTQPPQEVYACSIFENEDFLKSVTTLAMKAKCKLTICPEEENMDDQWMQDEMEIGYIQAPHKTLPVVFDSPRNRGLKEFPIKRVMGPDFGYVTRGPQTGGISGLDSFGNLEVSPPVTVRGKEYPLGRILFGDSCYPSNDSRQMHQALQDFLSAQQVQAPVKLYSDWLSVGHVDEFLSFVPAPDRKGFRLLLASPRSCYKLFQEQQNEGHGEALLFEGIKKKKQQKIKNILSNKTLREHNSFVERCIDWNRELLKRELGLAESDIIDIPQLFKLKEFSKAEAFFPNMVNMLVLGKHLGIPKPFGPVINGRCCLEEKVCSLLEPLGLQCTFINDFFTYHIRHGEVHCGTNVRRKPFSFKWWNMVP

With `COc1cc(C(=O)N2[C@H]3CC[C@@H]2[C@H](N)C3)cc2nc(-c3cc4ccc([C@@H](C)NC(=O)N5CCC(F)(F)C5)nc4n3CC3CC3)c(C)n12` [Example 243, ~{N}-[(1~{R})-1-[2-[7-[(1~{R},2~{R},4~{S})-2-amino-7-azabicyclo[2.2.1]heptane-7-carbonyl]-5-methoxy-3-methylimidazo [1,2-a]pyridin-2-yl]-1-(cyclopropylmethyl)pyrrolo [2,3-b]pyridin-6-yl]ethyl]-3,3-difluoropyrrolidine-1-carboxamide], the IC50 was found to be 0.0807 µM.
Consider `COc1cc(C(=O)N2[C@H]3CC[C@@H]2[C@H](N)C3)cc2nc(-c3cc4ccc([C@@H](C)NC(=O)NC(C)(C)C)nc4n3CC3CC3)c(C)n12` [Example 244, 1-[(1~{R})-1-[2-[7-[(1~{R},2~{R},4~{S})-2-amino-7-azabicyclo[2.2.1]heptane-7-carbonyl]-5-methoxy-3-methylimidazo [1,2-a]pyridin-2-yl]-1-(cyclopropylmethyl)pyrrolo [2,3-b]pyridin-6-yl]ethyl]-3-~{tert}-butylurea], for which the IC50 was found to be 0.0896 µM.
With `COc1cc(C(=O)N2[C@H]3CC[C@@H]2[C@H](N)C3)cc2nc(-c3cc4ccc([C@@H](C)NC(=O)N5C[C@@H](F)[C@@H](F)C5)nc4n3CC3CC3)c(C)n12` [Example 245, (3~{R},4~{S})-~{N}-[(1~{R})-1-[2-[7-[(1~{R},2~{R},4~{S})-2-amino-7-azabicyclo [2.2.1]heptane-7-carbonyl]-5-methoxy-3-methylimidazo [1,2-a]pyridin-2-yl]-1-(cyclopropylmethyl)pyrrolo [2,3-b]pyridin-6-yl]ethyl]-3,4-difluoropyrrolidine-1-carboxamide] the figure was 0.0622 µM; with `COc1cc(C(=O)N2[C@H]3CC[C@@H]2[C@H](N)C3)cc2nc(-c3cc4ccc([C@@H](C)NC(=O)N5CC6CC6C5)nc4n3CC3CC3)c(C)n12` (some centres unmarked) [Example 246, ~{N}-[(1~{R})-1-[2-[7-[(1~{R},2~{R},4~{S})-2-amino-7-azabicyclo[2.2.1]heptane-7-carbonyl]-5-methoxy-3-methylimidazo [1,2-a]pyridin-2-yl]-1-(cyclopropylmethyl)pyrrolo [2,3-b]pyridin-6-yl]ethyl]-3-azabicyclo[3.1.0]hexane-3-carboxamide], 0.0822 µM.
`COc1cc(C(=O)N2[C@H]3CC[C@@H]2[C@H](N)C3)cc2nc(-c3cc4ccc([C@@H](C)NC(=O)N5CCC5)nc4n3CC3CC3)c(C)n12` [Example 247]: the 50% inhibitory concentration (IC50) turned out to be 0.07 µM.
With `COc1cc(C(=O)N2[C@H]3CC[C@@H]2[C@H](N)C3)cc2nc(-c3cc4ccc([C@@H](C)NC(=O)N5CC[C@H](F)C5)nc4n3CC3CC3)c(C)n12` [Example 248, (3~{S})-~{N}-[(1~{R})-1-[2-[7-[(1~{R},2~{R},4~{S})-2-amino-7-azabicyclo[2.2.1]heptane-7-carbonyl]-5-methoxy-3-methylimidazo [1,2-a]pyridin-2-yl]-1-(cyclopropylmethyl)pyrrolo [2,3-b]pyridin-6-yl]ethyl]-3-fluoropyrrolidine-1-carboxamide] the figure was 0.0559 µM; with `COc1cc(C(=O)N2[C@H]3CC[C@@H]2[C@H](N)C3)cc2nc(-c3cc4ccc([C@@H](C)NC(=O)N5CCCC5)nc4n3CC3CC3)c(C3CC3)n12` [Example 249, ~{N}-[(1~{R})-1-[2-[7-[(1~{R},2~{R},4~{S})-2-amino-7-azabicyclo[2.2.1]heptane-7-carbonyl]-3-cyclopropyl-5-methoxyimidazo[1,2-a]pyridin-2-yl]-1-(cyclopropylmethyl)pyrrolo [2,3-b]pyridin-6-yl]ethyl] pyrrolidine-1-carboxamide], 0.066 µM.
In the case of `COc1cc(C(=O)N2C[C@H]3CC[C@@H]2[C@@H]3N)cc2nc(-c3cc4ccc([C@@H](C)NC(=O)N5CCCC5)nc4n3CC3CC3)c(C)n12` [Example 250, N-((R)-1-(2-(7-((1R,4R,7R)-7-amino-2-azabicyclo[2.2.1]heptane-2-carbonyl)-5-methoxy-3-methylimidazo[1,2-a]pyridin-2-yl)-1-(cyclopropylmethyl)-1H-pyrrolo[2,3-b]pyridin-6-yl)ethyl) pyrrolidine-1-carboxamide] it was 0.193 µM.
In the case of `COc1cc(C(=O)N2[C@H]3CC[C@@H]2[C@H](N)C3)cc2nc(-c3cc4ccc([C@@H](C)NC(=O)N5CCCC5)nc4n3CC3CC3)c(C)n12` [Example 251, N—((R)-1-(2-(7-((1R,2R,4S)-2-amino-7-azabicyclo[2.2.1]heptane-7-carbonyl)-5-methoxy-3-methylimidazo[1,2-a]pyridin-2-yl)-1-(cyclopropylmethyl)-1H-pyrrolo[2,3-b]pyridin-6-yl)ethyl)pyrrolidine-1-carboxamide] it was 0.0502 µM; in that of `COc1cc(C(=O)N2CCC[C@@H](N)C2)cc2nc(-c3cc4ccc([C@@H](C)NC(=O)N5CCCC5)nc4n3CC3CC3)c(C)n12` [Example 252, ~{N}-[(1~{R})-1-[2-[7-[(3~{R})-3-aminopiperidine-1-carbonyl]-5-methoxy-3-methylimidazo [1,2-a]pyridin-2-yl]-1-(cyclopropylmethyl)pyrrolo [2,3-b]pyridin-6-yl]ethyl] pyrrolidine-1-carboxamide], 0.0981 µM; in that of `COc1cc(C(=O)N2CCC[C@@H](N)C2)cc2nc(-c3cc4ccc([C@@H](C)NC(=O)N(C)C)nc4n3CC3CC3)c(C)n12` [Example 253, 3-[(1~{R})-1-[2-[7-[(3~{R})-3-aminopiperidine-1-carbonyl]-5-methoxy-3-methylimidazo[1,2-a]pyridin-2-yl]-1-(cyclopropylmethyl)pyrrolo [2,3-b]pyridin-6-yl]ethyl]-1,1-dimethylurea], 0.135 µM.
Turning to `COc1cc(C(=O)N2[C@H]3CC[C@@H]2[C@H](N)C3)cc2nc(-c3cc4ccc([C@@H](C)NC(=O)OC(C)C)nc4n3CC3CC3)c(C)n12` [Example 254, propan-2-yl~{N}-[(1~{R})-1-[2-[7-[(1~{R}, 2~{R},4~{S})-2-amino-7-azabicyclo[2.2.1]heptane-7-carbonyl]-5-methoxy-3-methylimidazo [1,2-a]pyridin-2-yl]-1-(cyclopropylmethyl)pyrrolo [2,3-b]pyridin-6-yl]ethyl] carbamate], the IC50 amounted to 0.11 µM.
In the case of `COc1cc(C(=O)N2CCC[C@@H](N)C2)cc2nc(-c3cc4ccc([C@@H](C)NC(=O)OC5CCCC5)nc4n3CC3CC3)c(C)n12` [Example 255, cyclopentyl~{N}-[(1~{R})-1-[2-[7-[(3~{R})-3-aminopiperidine-1-carbonyl]-5-methoxy-3-methylimidazo[1,2-a]pyridin-2-yl]-1-(cyclopropylmethyl)pyrrolo [2,3-b]pyridin-6-yl]ethyl] carbamate], the IC50 came to 0.286 µM.
With `COc1cc(C(=O)N2CCC[C@@H](N)C2)cc2nc(-c3cc4ccc([C@@H](C)NC(=O)OCC(C)(C)C)nc4n3CC3CC3)c(C)n12` [Example 256, 2,2-dimethylpropyl~{N}-[(1~{R})-1-[2-[7-[(3~ {R})-3-aminopiperidine-1-carbonyl]-5-methoxy-3-methylimidazo[1,2-a]pyridin-2-yl]-1-(cyclopropylmethyl)pyrrolo [2,3-b]pyridin-6-yl]ethyl] carbamate] the figure was 0.486 µM.
With `COc1cc(C(=O)N2CCC[C@@H](N)C2)cc2nc(-c3cc4ccc([C@@H](C)NC(=O)OC(C)(C)C)nc4n3CC3CC3)c(C)n12` [Example 257, ~{tert}-butyl~{N}-[(1~{R})-1-[2-[7-[(3~{R})-3-aminopiperidine-1-carbonyl]-5-methoxy-3-methylimidazo[1,2-a]pyridin-2-yl]-1-(cyclopropylmethyl)pyrrolo [2,3-b]pyridin-6-yl]ethyl] carbamate] the figure was 0.208 µM.
Regarding `COC(=O)N[C@H](C)c1ccc2cc(-c3nc4cc(C(=O)N5CCC[C@@H](N)C5)cc(OC)n4c3C)n(CC3CC3)c2n1` [Example 258], the concentration for half-maximal inhibition (IC50) stood at 0.225 µM.
For `COc1cc(C(=O)N2[C@H]3CC[C@@H]2[C@H](N)C3)cc2nc(-c3cc4ccc([C@@H](C)Nc5ccc(F)cn5)nc4n3CC3CC3)c(C)n12` [Example 259, ((1R,2R,4S)-2-amino-7-azabicyclo[2.2.1]heptan-7-yl)(2-(1-(cyclopropylmethyl)-6-((R)-1-((5-fluoropyridin-2-yl)amino)ethyl)-1H-pyrrolo[2,3-b]pyridin-2-yl)-5-methoxy-3-methylimidazo[1,2-a]pyridin-7-yl)methanone], the IC50 stood at 0.18 µM.
In the case of `COc1cc(C(=O)N2[C@H]3CC[C@@H]2[C@H](N)C3)cc2nc(-c3cc4ccc([C@@H](C)Nc5cnn(C(C)(C)C)c5)nc4n3CC3CC3)c(C)n12` [Example 260, [(1~{R},2~{R},4~{S})-2-amino-7-azabicyclo[2.2.1]heptan-7-yl]-[2-[6-[(1~{R})-1-[(1-~{tert}-butylpyrazol-4-yl)amino]ethyl]-1-(cyclopropylmethyl)pyrrolo [2,3-b]pyridin-2-yl]-5-methoxy-3-methylimidazo [1,2-a]pyridin-7-yl] methanone] it was 0.122 µM.
With `COc1cc(C(=O)N2[C@H]3CC[C@@H]2[C@H](N)C3)cc2nc(-c3cc4ccc([C@@H](C)Nc5ccccn5)nc4n3CC3CC3)c(C)n12` [Example 261, [(1~{R},2~{R},4~{S})-2-amino-7-azabicyclo [2.2.1]heptan-7-yl]-[2-[1-(cyclopropylmethyl)-6-[(1~{R})-1-(pyridin-2-ylamino)ethyl]pyrrolo[2,3-b]pyridin-2-yl]-5-methoxy-3-methylimidazo[1,2-a]pyridin-7-yl]methanone] the figure was 0.144 µM.
With `COc1cc(C(=O)N2[C@H]3CC[C@@H]2[C@H](N)C3)cc2nc(-c3cc4ccc([C@@H](C)Nc5cccc(Cl)n5)nc4n3CC3CC3)c(C)n12` [Example 262, [(1~{R},2~{R},4~{S})-2-amino-7-azabicyclo [2.2.1]heptan-7-yl]-[2-[6-[(1~{R})-1-[(6-chloropyridin-2-yl)amino]ethyl]-1-(cyclopropylmethyl)pyrrolo[2,3-b]pyridin-2-yl]-5-methoxy-3-methylimidazo[1,2-a]pyridin-7-yl]methanone] the figure was 0.867 µM.
